Data published in US20220002279A1, “NOVEL IMIDAZOLE DERIVATIVE” (priority 2018, published 2022).
pIC50: −log10 of the molar value. Values after ≈ are worked out from the molar mass of the structure shown. Like-named read-outs stand apart in the source and are kept apart here.

Assays:
[1] = target: T1, Pseudomonas aeruginosa LpxC enzyme (Pseudomonas aeruginosa, UniProt P47205); experiment: Inhibitory activity on Pseudomonas aeruginosa LpxC enzyme (fluorescamine method); type: biochemical; settings: fluorescamine detection; 3.6 nmol/L enzyme, 20 μmol/L substrate, pH 8.0, 60 min
T1 construct: made in house; host or cells: Escherichia coli
T1 sequence (P47205 1-303): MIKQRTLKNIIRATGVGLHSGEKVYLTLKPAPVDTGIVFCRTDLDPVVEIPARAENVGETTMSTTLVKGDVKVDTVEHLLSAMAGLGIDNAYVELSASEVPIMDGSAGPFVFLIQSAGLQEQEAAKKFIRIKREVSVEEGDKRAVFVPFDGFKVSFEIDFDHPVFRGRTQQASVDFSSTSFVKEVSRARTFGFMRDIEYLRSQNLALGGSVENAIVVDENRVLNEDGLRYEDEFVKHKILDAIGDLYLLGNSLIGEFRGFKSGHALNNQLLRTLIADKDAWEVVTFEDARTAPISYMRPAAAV
From the text: Test Example 1 Evaluation of the Inhibitory Activity on Pseudomonas aeruginosa LpxC Enzyme (Fluoresamine Method)
To assay the activity of Pseudomonas aeruginosa LpxC enzyme, LpxC was reacted with its substrate, UDP-3-O-(R-3-hydroxydecanoyl)-N-acetylglucosamine, and the amount of the reaction product was quantified by the amino groups present in the product.
Specifically, to 3.6 nmol/L Pseudomonas aeruginosa LpxC enzyme (as acquired by preparing chromosomal DNA from Pseudomonas aeruginosa, obtaining the Pseudomonas aeruginosa LpxC genes by PCR (polymerase chain reaction) using LpxC specific primer, and incorporating the genes into a vector, followed by expression using Escherichia coli), 20 μmol/L UDP-3-O-(R-3-hydroxydecanoyl)-N-acetylglucosamine (Carbosynth) was added, and the mixture was incubated at room temperature for 60 minutes. This reaction was performed in a 40 mmol/L-HEPES buffer solution (pH 8.0) containing 0.02% Brij 35 and 25 nmol/L-zinc chloride. The reaction was terminated by the addition of 1.0 mg/mL-fluorescamine dissolved in a solvent obtained by mixing an equal amount of acetonitrile and dimethylformamide with the reaction mixture, and then, a 0.2 mol/L-sodium phosphate buffer solution (pH 8.0) was added thereto, and the amount of the reaction product was detected at an excitation wavelength/fluorescence wavelength=390 nm/495 nm. An inhibition curve was obtained by performing the aforementioned reaction in the presence of various concentrations of test compounds. From this inhibition curve, the concentration of test compound at which the amount of the reaction product was suppressed by 50% (IC50 value) was determined, which was used as an index for the inhibitory activity on Pseudomonas aeruginosa LpxC enzyme.

[2] = test system: Klebsiella pneumoniae strain ATCC13883; experiment: Antimicrobial activity, MIC by broth microdilution; type: cell-based; settings: ATCC13883, cation-adjusted Mueller-Hinton broth, about 5×10^5 CFU/mL, 35° C., about 18 hours, read-out: MIC Klebsiella pneumoniae ATCC13883
In short: (§1)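 CLSI-based broth microdilution in cation-adjusted Mueller-Hinton broth, inoculum about 5×10^5 CFU/mL from overnight heart infusion agar culture. Incubation 35° C. about 18 h; MIC is the lowest concentration with no visible growth.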

[3] = test system: Pseudomonas aeruginosa strain ATCC27853; experiment: Antimicrobial activity, MIC by broth microdilution; type: cell-based; settings: ATCC27853, 18 h, cation-adjusted Mueller-Hinton broth, about 5×10^5 CFU/mL, 35° C., about 18 hours, read-out: MIC Pseudomonas aeruginosa ATCC27853
In short: as §1

[4] = target: T2, Escherichia coli LpxC enzyme (Escherichia coli, UniProt P0A725); experiment: Inhibitory activity on Escherichia coli LpxC enzyme (LCMS method); type: biochemical
T2 construct: made in house; host or cells: Escherichia coli
T2 sequence (P0A725 1-305): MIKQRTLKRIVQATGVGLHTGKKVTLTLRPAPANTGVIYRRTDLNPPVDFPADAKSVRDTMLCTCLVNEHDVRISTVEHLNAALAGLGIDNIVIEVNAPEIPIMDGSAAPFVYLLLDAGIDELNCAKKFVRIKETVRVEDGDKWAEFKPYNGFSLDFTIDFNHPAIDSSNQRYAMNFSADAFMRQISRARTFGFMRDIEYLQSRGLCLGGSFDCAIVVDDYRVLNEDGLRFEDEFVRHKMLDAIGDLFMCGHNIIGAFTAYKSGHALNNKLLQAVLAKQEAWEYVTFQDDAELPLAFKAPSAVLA
From the text: Test Example 3 Evaluation of the Inhibitory Activity on Escherichia coli LpxC Enzyme (LCMS Method)
To assay the activity of Escherichia coli LpxC enzyme, LpxC was reacted with its substrate, UDP-3-O-(R-3-hydroxymyristoyl)-N-acetylglucosamine, and the amount of the reaction product was quantified by liquid chromatography tandem mass spectrometry.
Specifically, to 3.1 nmol/L Escherichia coli LpxC enzyme (as acquired by preparing chromosomal DNA from Escherichia coli, obtaining the Escherichia coli LpxC genes by PCR (polymerase chain reaction) using LpxC specific primer, and incorporating the genes into a vector, followed by expression using Escherichia coli), 20 μmol/L UDP-3-O-(R-3-hydroxymyristoyl)-N-acetylglucosamine (Alberta) was added, and the mixture was incubated at room temperature for 120 minutes. This reaction was performed in a 40 mmol/L-2-morpholinoethanesulfonic acid buffer solution (pH 6.5) containing 0.02% Brij 35, 25 nmol/L-zinc chloride, and 80 μmol/L-dithiothreitol. The reaction was terminated by the addition of acetonitrile containing 25 μmol/L-UDP-N-acetylglucosamine as an internal standard to the reaction mixture. Centrifugation was performed and the amount of the substrate and the reaction product in the supernatant was detected by liquid chromatography tandem mass spectrometry. An inhibition curve was obtained by performing the aforementioned reaction in the presence of various concentrations of test compounds. From this inhibition curve, the concentration of test compound at which the amount of the reaction product was suppressed by 50% (IC50 value) was determined, which was used as an index for the inhibitory activity on Escherichia coli LpxC enzyme.

[5] = test system: Escherichia coli strain ATCC25922; experiment: Antimicrobial activity, MIC by broth microdilution; type: cell-based; settings: ATCC25922, 18 h, cation-adjusted Mueller-Hinton broth, about 5×10^5 CFU/mL, 35° C., about 18 hours, read-out: MIC Escherichia coli ATCC25922
In short: as §1

[6] = LC-MS/MS detection, 3.1 nmol/L enzyme, 20 μmol/L substrate, pH 6.5, 120 min, read-out: IC50 (inhibitory activity on Escherichia coli LpxC enzyme, LCMS method)

C[C@H](O)c1nccn1Cc1cc(-c2ccc(C#CC3CC3CN)cc2)on1 (stereo in doubt) [Compound 8, (1S)-1-(1-{[5-(4-{[trans-2-(aminomethyl)cyclopropyl]ethynyl}phenyl)-1,2-oxazol-3-yl]methyl}-1H-imidazol-2-yl)ethan-1-ol]
pIC50 [1]: 7.52 | MIC [2]: 64 µg/mL (≈ 177 µM) | MIC [3]: 16 µg/mL (≈ 44.1 µM) | pIC50 [4, 6]: 7.17

C[C@H](O)c1nccn1Cc1cc(-c2ccc(C#CC34CC(N)(C3)C4)cc2)on1 [Compound 17, (1S)-1-{1-[(5-(4-[(3-aminobicyclo[1.1.1]pentan-1-yl)ethynyl]phenyl}-1,2-oxazol-3-yl)methyl]-1H-imidazol-2-yl}ethan-1-ol]
pIC50 [1]: 7.86 | MIC [2]: 0.5 µg/mL (≈ 1.34 µM) | MIC [3]: 16 µg/mL (≈ 42.7 µM) | MIC [5]: 0.5 µg/mL (≈ 1.34 µM) | pIC50 [4, 6]: 7.31

C[C@H](O)c1nccn1[C@H](CN)c1cc(-c2ccc(C#CCCCO)cc2)on1 [Compound 18, 5-(4-{3-[(1R)-2-Amino-1-{2-[(1S)-1-hydroxyethyl]-1H-imidazol-1-yl}ethyl]-1,2-oxazol-5-yl}phenyl)pent-4-yn-1-ol]
pIC50 [1]: 8.22 | MIC [2]: 8 µg/mL (≈ 21 µM) | MIC [3]: 16 µg/mL (≈ 42.1 µM) | pIC50 [4]: 7.16

C[C@H](O)c1nccn1Cc1cc(-c2ccc(C#C[C@@H]3[C@H]4CN(C(=O)CCN)C[C@@H]34)cc2)on1 [Compound 61, 3-Amino-1-[(1R,5S,6s)-6-({4-[3-({2-[(1S)-1-hydroxyethyl]-1H-imidazol-1-yl}methyl)-1,2-oxazol-5-yl]phenyl}ethynyl)-3-azabicyclo[3.1.0]hexan-3-yl]propan-1-one]
MIC [2]: 16 µg/mL (≈ 35.9 µM) | MIC [3]: 4 µg/mL (≈ 8.98 µM) | MIC [5]: 8 µg/mL (≈ 18 µM) | pIC50 [4, 6]: > 7.43
